# Measured values as given in publication PMC7261474 (Journal of medicinal chemistry, 2020).
# Several values for one entry are separate records, joined by “and”; a condition that tells them apart may be missing. Equal values may be shown once. Read-outs that look alike come from different tables or passages of the source. Where a SMILES comes first, the peptide text is derived from it. [ ]: non-standard residue; d: D form. The star is where a group is joined. hPhe = N[CH](CCc1ccccc1)C(=O)O; 4Pal = N[CH](Cc1ccncc1)C(=O)O; AMC = Cc1cc(=O)oc2cc(N*)ccc12; Cbz = O=C(OCc1ccccc1)*
# Experiments:
# cruzain [1] = target: T1, cruzain (Trypanosoma cruzi, UniProt P25779); assay: Cruzain inhibition/inactivation, time courses with Cbz-Phe-Arg-AMC
# [2] = Covalent adduct formation with glutathione; format: physicochemical; conditions: for reaction with GSH (adduct formation): 90 min incubation, 2:1 or 10:1 molar ratio GSH/inhibitor; for rate of formation of GSH adduct: 2:1 molar ratio GSH/inhibitor; for Keq of GSH adduct (apparent equilibrium): 2:1 molar ratio, equilibrium in 90 min
# [3] = system: T. cruzi (epimastigote forms, strain Y, ATCC 50832GFP); assay: Growth inhibition of T. cruzi epimastigotes in axenic culture; format: cell-based, Trypanosoma cruzi; conditions: 5 days
# [4] = system: Primary human dermal fibroblast (HDF) cells; assay: Human cell toxicity; format: cell-based; conditions: CC50 in human dermal fibroblasts / EC50 in infected cardiomyoblasts
# cruzain [5] = target: T1, cruzain; assay: Cruzain-catalysed hydrolysis of fluorogenic dipeptide-AMC substrates; format: biochemical; conditions: for Km / kcat: pH 7.5, 25 °C, 10% DMSO (v/v); for kcat rel: relative to S1 Cbz-Phe-Arg-AMC, S6 and S12 from 2% DMSO data
# human cathepsin L = human cathepsin L (Homo sapiens, UniProt P07711); assay: Human cathepsin L assay with Cbz-Phe-Arg-AMC; format: biochemical; conditions: pH 5.5, 25 °C, 10% DMSO
# human cathepsin B = human cathepsin B (Homo sapiens, UniProt P07858); assay: Human cathepsin B assay with Cbz-Phe-Arg-AMC; format: biochemical; conditions: pH 5.5, 25 °C, 10% DMSO
# human cathepsin S = human cathepsin S (Homo sapiens, UniProt P25774); assay: Human cathepsin S assay with Cbz-Phe-Arg-AMC; format: biochemical; conditions: pH 5.5, 25 °C, 10% DMSO
# cruzain [6] = target: T1, cruzain; conditions: 2% DMSO (v/v); ref [40]; cited from earlier work
# [7] = system: T. cruzi strain Ca-I/72 in C2C12 mouse cardiomyoblasts; conditions: ref [55]; cited from earlier work
# T1 sequence (P25779 123-467): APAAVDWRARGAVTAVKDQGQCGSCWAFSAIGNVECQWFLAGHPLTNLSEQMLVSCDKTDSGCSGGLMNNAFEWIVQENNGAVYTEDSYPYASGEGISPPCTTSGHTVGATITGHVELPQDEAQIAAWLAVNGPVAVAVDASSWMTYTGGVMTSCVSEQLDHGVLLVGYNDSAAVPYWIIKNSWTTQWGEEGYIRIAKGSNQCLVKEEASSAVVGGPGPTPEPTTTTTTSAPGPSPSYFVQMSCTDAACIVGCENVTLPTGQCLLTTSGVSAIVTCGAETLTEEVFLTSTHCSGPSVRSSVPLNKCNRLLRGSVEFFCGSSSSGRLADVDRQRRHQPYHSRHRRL
# Sequence of human cathepsin L (P07711 114-333): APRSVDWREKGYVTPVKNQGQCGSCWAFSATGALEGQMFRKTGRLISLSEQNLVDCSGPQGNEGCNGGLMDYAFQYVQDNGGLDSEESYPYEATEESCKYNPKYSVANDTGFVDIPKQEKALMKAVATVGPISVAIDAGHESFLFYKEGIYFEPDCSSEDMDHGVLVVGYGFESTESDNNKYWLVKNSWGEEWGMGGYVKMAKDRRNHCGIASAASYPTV
# Sequence of human cathepsin S (P25774 115-331): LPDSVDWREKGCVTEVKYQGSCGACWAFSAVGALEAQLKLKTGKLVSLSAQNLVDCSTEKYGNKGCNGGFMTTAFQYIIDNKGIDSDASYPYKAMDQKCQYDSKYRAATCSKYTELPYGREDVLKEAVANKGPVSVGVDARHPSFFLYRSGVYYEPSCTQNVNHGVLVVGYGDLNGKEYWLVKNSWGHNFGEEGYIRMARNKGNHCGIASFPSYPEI
SMILES,Km (cruzain [5]) [µM],kcat (cruzain [5]),kcat rel (cruzain [5]),also measured
"O=C(N[C@@H](Cc1ccccc1)C(=O)NC(CCc1ncccn1)Cc1ccccc1)OCc1ccccc1 (stereo in doubt) [Compound 27, Benzyl ((S)-1-Oxo-3-phenyl-1-(((S)-1-phenyl-4-(pyrimidin-2-yl)-butan-2-yl)amino)propan-2-yl)carbamate]",–,–,–,Ki (cruzain [1]): 22 µM
"O=C(N[C@@H](Cc1ccccc1)C(=O)N[C@H](/C=C/c1ncccn1)Cc1ccccc1)OCc1ccccc1 [Compound 7, Benzyl ((S)-1-Oxo-3-phenyl-1-(((S,E)-1-phenyl-4-(pyrimidin-2-yl)-but-3-en-2-yl)amino)propan-2-yl)carbamate]",–,–,–,reaction with GSH (adduct formation) ([2]; pH 8.0): no adduct was observed
"O=C(N[C@@H](Cc1ccccc1)C(=O)N[C@H](/C=C/c1ccccn1)Cc1ccccc1)OCc1ccccc1 [Compound 11, Benzyl ((S)-1-Oxo-3-phenyl-1-(((S,E)-1-phenyl-4-(pyridin-2-yl)but-3-en-2-yl)amino)propan-2-yl)carbamate]",–,–,–,T. cruzi axenic culture EC50 [3]: poorly effective; reaction with GSH (adduct formation) ([2]; pH 8.0): no adduct was observed
"C[n+]1ccccc1/C=C/[C@H](Cc1ccccc1)NC(=O)[C@H](Cc1ccccc1)NC(=O)OCc1ccccc1.[I-] [Compound 12, 2-((S,E)-3-((S)-2-(((Benzyloxy)carbonyl)amino)-3-phenylpropanamido)-4-phenylbut-1-en-1-yl)-1-methylpyridin-1-ium Iodide]",–,–,–,"selectivity index CC50/EC50 [4]: >10; rate of formation of GSH adduct ([2]; pH 8.0): 37 M⁻¹ s⁻¹; Keq of GSH adduct (apparent equilibrium) ([2]; pH 8.0): 7400 M⁻¹; conversion to GSH adduct ([2]; 20 min, 10:1 molar ratio of GSH to compound): 97%"
"O=C(N[C@@H](Cc1ccccc1)C(=O)N[C@H](/C=C/c1ccccn1)CCc1ccccc1)OCc1ccccc1 [Compound 13, Benzyl ((S)-1-Oxo-3-phenyl-1-(((S,E)-5-phenyl-1-(pyridin-2-yl)pent-1-en-3-yl)amino)propan-2-yl)carbamate]",–,–,–,T. cruzi axenic culture EC50 [3]: poorly effective
"C[n+]1ccccc1/C=C/[C@H](CCc1ccccc1)NC(=O)[C@H](Cc1ccccc1)NC(=O)OCc1ccccc1 [Compound 15, 2-((S,E)-3-((S)-2-(((Benzyloxy)carbonyl)amino)-3-phenylpropanamido)-5-phenylpent-1-en-1-yl)-1-methylpyridin-1-ium]",–,–,–,"selectivity index CC50/EC50 [4]: >20; rate of formation of GSH adduct ([2]; pH 8.0): 54 M⁻¹ s⁻¹; Keq of GSH adduct (apparent equilibrium) ([2]; pH 8.0): 2400 M⁻¹; Ki (cruzain [1]): 0.6 ± 0.2 µM; k3 (eq 6) (cruzain [1]; pH 7.5, global fitting to eq 6): 0.0012 ± 0.0004 s⁻¹; k4 (eq 6) (cruzain [1]; pH 7.5, global fitting to eq 6): 0.00019 ± 0.00005 s⁻¹"
"O=C(N[C@@H](Cc1ccccc1)C(=O)N[C@H](/C=C/c1cc(C(F)(F)F)ccn1)CCc1ccccc1)OCc1ccccc1 [Compound 17, Benzyl ((S)-1-Oxo-3-phenyl-1-(((S,E)-5-phenyl-1-(4-(trifluoromethyl)pyridin-2-yl)pent-1-en-3-yl)amino)propan-2-yl)-carbamate]",–,–,–,reaction with GSH (adduct formation) ([2]; pH 8.0): no adduct was observed
"O=C(N[C@@H](Cc1ccccc1)C(=O)N[C@H](/C=C/c1ncco1)Cc1ccccc1)OCc1ccccc1 [Compound 24, Benzyl ((S)-1-(((S,E)-4-(Oxazol-2-yl)-1-phenylbut-3-en-2-yl)-amino)-1-oxo-3-phenylpropan-2-yl)carbamate]",–,–,–,T. cruzi axenic culture EC50 [3]: poorly effective
"O=C(N[C@@H](Cc1ccccc1)C(=O)N[C@H](/C=C/c1nccs1)Cc1ccccc1)OCc1ccccc1 [Compound 25, Benzyl ((S)-1-Oxo-3-phenyl-1-(((S,E)-1-phenyl-4-(thiazol-2-yl)-but-3-en-2-yl)amino)propan-2-yl)carbamate]",–,–,–,reaction with GSH (adduct formation) ([2]; pH 8.0): no adduct was observed
"C[n+]1ccsc1/C=C/[C@H](Cc1ccccc1)NC(=O)[C@H](Cc1ccccc1)NC(=O)OCc1ccccc1.[I-] [Compound 26, 2-((S,E)-3-((S)-2-(((Benzyloxy)carbonyl)amino)-3-phenylpropanamido)-4-phenylbut-1-en-1-yl)-3-methylthiazol-3-ium Iodide]",–,–,–,rate of formation of GSH adduct ([2]; pH 8.0): 15 M⁻¹ s⁻¹; Keq of GSH adduct (apparent equilibrium) ([2]; pH 8.0): 930 M⁻¹
"CN1CCN(C(=O)N[C@@H](Cc2ccccc2)C(=O)N[C@H](/C=C/S(=O)(=O)c2ccccc2)CCc2ccccc2)CC1 [K11777, reference compound]",–,–,–,"rate of glutathione adduct formation k ([2]; 0.5 mM compound, 1 mM GSH, pH 8.0): 0.00028 s⁻¹"
"Cc1cc(=O)oc2cc(NC(=O)[C@H](CCCN=C(N)N)NC(=O)[C@H](Cc3ccccc3)NC(=O)OCc3ccccc3)ccc12 [S1, Cbz-Phe-Arg-AMC, reference compound] (Cbz-Phe-Arg-{AMC})",0.89 ± 0.09,9.6 ± 0.2 s⁻¹,1.00,"Michaelis constant, cathepsin L (human cathepsin L): 2.9 µM; Michaelis constant, cathepsin B (human cathepsin B): 150 µM; Michaelis constant, cathepsin S (human cathepsin S): 60 µM"
"Cc1cc(=O)oc2cc(NC(=O)[C@H](CCc3ccccc3)NC(=O)[C@H](Cc3ccccc3)NC(=O)OCc3ccccc3)ccc12 [S2, Cbz-Phe-hPhe-AMC] (Cbz-Phe-[hPhe]-{AMC})",0.26 ± 0.06,2.0 ± 0.2 s⁻¹,0.21,–
"Cc1cc(=O)oc2cc(NC(=O)C(CCc3ccccc3)NC(=O)C(CC(C)C)NC(=O)OCc3ccccc3)ccc12 (stereo not drawn) [S3, Cbz-Leu-hPhe-AMC] (Cbz-Leu-[hPhe]-{AMC}; configuration not given here)",0.8 ± 0.2,3.0 ± 0.2 s⁻¹,–,–
"Cc1cc(=O)oc2cc(NC(=O)[C@H](CCCN=C(N)N)NC(=O)[C@H](CC(C)C)NC(=O)OCc3ccccc3)ccc12 [S4, Cbz-Leu-Arg-AMC]",2.2 ± 0.3,8.4 ± 0.4 s⁻¹,0.88,–
"Cc1cc(=O)oc2cc(NC(=O)C(Cc3ccncc3)NC(=O)C(Cc3ccccc3)NC(=O)OCc3ccccc3)ccc12 (stereo not drawn) [S5, Cbz-Phe-(4-Pyr)Ala-AMC] (Cbz-Phe-[4Pal]-{AMC}; configuration not given here)",3.7 ± 0.5,7.5 ± 0.5 s⁻¹,0.76,–
"Cc1cc(=O)oc2cc(NC(=O)[C@H](CCCN=C(N)N)NC(=O)[C@H](CCCN=C(N)N)NC(=O)OCc3ccccc3)ccc12 [S6, Cbz-Arg-Arg-AMC] (Cbz-Arg-Arg-{AMC})",–,–,0.75,Km (cruzain [6]): 3.7 ± 0.4 µM; kcat (cruzain [6]): 7.2 ± 0.1 s⁻¹
"Cc1cc(=O)oc2cc(NC(=O)C(CCc3ccccc3)NC(=O)C(Cc3ccccc3)NC(=O)N3CCN(C)CC3)ccc12 (stereo not drawn) [S7, NMePip-Phe-hPhe-AMC]",3.1 ± 0.3,4.0 ± 0.1 s⁻¹,0.42,–
"Cc1cc(=O)oc2cc(NC(=O)[C@H](CCc3ccccc3)NC(=O)[C@H](Cc3ccncc3)NC(=O)OCc3ccccc3)ccc12 [S8, Cbz-(4-Pyr)Ala-hPhe-AMC] (Cbz-[4Pal]-[hPhe]-{AMC})",4.6 ± 0.5,5.3 s⁻¹ and 5.3 ± 0.2 s⁻¹,0.55,–
"Cc1cc(=O)oc2cc(NC(=O)[C@H](Cc3ccccc3)NC(=O)[C@H](Cc3ccccc3)NC(=O)OCc3ccccc3)ccc12 [S9, Cbz-Phe-Phe-AMC] (Cbz-Phe-Phe-{AMC})",0.34 ± 0.06,0.26 ± 0.01 s⁻¹,0.03,–
"Cc1cc(=O)oc2cc(NC(=O)C(CCc3ccccc3)NC(=O)C(CCCN=C(N)N)NC(=O)OCc3ccccc3)ccc12 (stereo not drawn) [S10, Cbz-Arg-hPhe-AMC]",6.8 ± 0.4,4.9 s⁻¹ and 4.9 ± 0.1 s⁻¹,0.51,–
"Cc1cc(=O)oc2cc(NC(=O)[C@H](Cc3ccccc3)NC(=O)[C@H](Cc3ccccc3)NC(=O)N3CCN(C)CC3)ccc12 [S11, NMePip-Phe-Phe-AMC]",14 ± 4,2.8 ± 0.06 s⁻¹,0.29,–
"Cc1cc(=O)oc2cc(NC(=O)C(C)NC(=O)C(Cc3ccccc3)NC(=O)OCc3ccccc3)ccc12 (stereo not drawn) [S12, Cbz-Phe-Ala-AMC]",–,–,0.09,Km (cruzain [6]): 38 ± 2 µM; kcat (cruzain [6]): 0.89 ± 0.06 s⁻¹
O=C(Cn1ccnc1[N+](=O)[O-])NCc1ccccc1 [benznidazole],–,–,–,LD50 (antichagasic potency) [7]: 1.5 µM
